Patent US20210085640A1, “ACYLATED CATECHIN POLYPHENOLS AND METHODS OF THEIR USE FOR THE TREATMENT OF CANCER” (Flagship Pioneering Innovations V, Inc., priority 2018, published 2021)

How the values were obtained:
[1] = Stability in Simulated Intestinal Fluid (SIF); assay type: in vitro ADME; details: for Assay 2 (SIF) (% @ Remaining 4 hours): SIF pH 6.7 with pancreatin, 1 μM, 37° C.; for selective delivery to the upper intestine: conclusion drawn from Table 1 (SGF and SIF stability)
Method: SIF Stability of acylated active agents in Simulated Intestinal Fluid (SIF). This assay was used to assess the stability of an acylated active agent in a small intestine.
Phosphate buffer was prepared by dissolving 0.42 g of sodium hydroxide pellets and 3.95 g of monobasic sodium phosphate monohydrate and 6.19 g of sodium chloride in ultrapure water (MilliQ®, Millipore Sigma, Darmstadt, Germany). The pH was adjusted to 6.7 using aq. HCl and aq. NaOH, as necessary, and the solution was diluted with ultrapure water to produce 1 L of the pH 6.7 buffer.
112 mg FaSSIF powder (Biorelevant™, London, UK) was dissolved in 50 mL of the pH 6.7 buffer. 2 to 3 mL of the resulting solution were then added to 500 mg pancreatin (Millipore Sigma, Darmstadt, Germany). The resulting mixture was agitated by finger tapping the vessel containing the mixture until milky suspension formed. At this time, the remainder of the 50 mL FaSSiF/pH 6.7 buffer solution was added. The resulting suspension was flipped upside down 10 times to produce SIF, which was used fresh.
(§1) Test compounds were dissolved in DMSO stock to 1 mM. An aliquot of the DMSO stock solution was removed and diluted in the SIF media in 15 mL falcon tubes to produce a mixture with a tested compound concentration of 1 μM. A 1 mL aliquot was immediately removed and diluted once with 1 volume of acetonitrile for T0 timepoint. The mixture was sealed and agitated at 37° C. in an incubator. Aliquots (1 mL) were removed at regular intervals and immediately quenched by the addition of 1 volume of acetonitrile. The resulting samples were analyzed by LC/MS to determine degradation rates.

[2] = Stability in Simulated Gastric Fluid (SGF); assay type: in vitro ADME; details: SGF pH 1.6 with pepsin, 1 μM, 37° C.
Method: Stability of acylated active agents in Simulated Gastric Fluid (SGF). This assay was used to assess the stability of an acylated active agent in a stomach.
Medium was prepared by dissolving 2 g of sodium chloride in 0.6 L in ultrapure water (MilliQ®, Millipore Sigma, Darmstadt, Germany). The pH was adjusted to 1.6 with 1N hydrochloric acid, and the volume was then adjusted to 1 L with purified water.
60 mg FaSSIF powder (Biorelevant™, London, UK) were dissolved in 500 mL buffer (above). Pepsin was added (0.1 mg/mL) (Millipore Sigma, Darmstadt, Germany), and the solution was stirred. The resulting SGF media were used fresh for each experiment.
as §1, with “SGF Media” for “SIF media”, “generate” for “produce”, “total” for “mixture with a tested”, “mixed” for “agitated”, “rates” for “rates.”

[3] = Human Regulatory T Cell Differentiation Assay; assay type: cell-based; details: human, primary naïve CD4+ T cells isolated from PBMCs, read-out: Cell viability % DMSO
Method: Peripheral blood mononuclear cells (PBMCs) from whole blood donated by health volunteers were separated by Ficoll-Paque gradient centrifugation and naïve CD4^+ T cells were subsequently isolated using magnet beads (EasySep™ Human Naïve CD4^+ T Cell Isolation Kit, Cambridge, Mass.). For regulatory T cell (Treg) differentiation assay, naïve CD4^+ T cells were cultured (1-10×10^4 cells) in CTS OpTmizer medium for 6 days and stimulated with 5 ng/ml TGF-β, 100 U/ml IL-2, and ImmunoCult™ Human […] T Cell Activator; Stemcell #10990) with/without Compounds. Cell viability was determined using a viability dye (eBioscience Fixable Viability Dye eFluor 780: ThermoFisher 65-0865-14) at 1:500 dilution. The cells were gated for Treg, defined as Live, CD11c^−, CD14^−, CD19^−, CD8^−, CD4^+, CD3^+, CD25^+, FOXP3^+. Percent (%) Tregs were calculated as percentage of CD4^+, CD25^+, FOXP3^+ cells over total CD4^+ T cells. Statistical analysis was performed with GraphPad Prism Software Using One-Way ANOVA.

SMILES	Assay 2 (SIF) (% @ Remaining 4 hours) [1]	Assay 1 (SGF) (% Remaining @ 1 hours) [2]	selective delivery to the upper intestine [1]	also measured
CCC(=O)O[C@H](C)CCOC(=O)Oc1ccc(/C=C/c2cc(OC(=O)OCC[C@@H](C)OC(=O)CC)cc(OC(=O)OCC[C@@H](C)OC(=O)CC)c2)cc1 [Compound 28, (2R,2′R)-((((5-(E)-4-((((R)-3-(propionyloxy)butoxy)carbonyl)oxy)styryl)-1,3-phenylene)bis(oxy))bis(carbonyl))bis(oxy))bis(butane-4,2-diyl) dipropionate]	A (<25% of the tested compound remaining)	B (25-75% of the tested compound remaining)		
CC(=O)Oc1cc(OC(C)=O)c2c(=O)c(OC(C)=O)c(-c3ccc(OC(C)=O)c(OC(C)=O)c3)oc2c1 [Compound 4, [2-acetoxy-4-(3,5,7-triacetoxy-4-oxo-chromen-2-yl)phenyl] acetate]	A (<25% of the tested compound remaining)	C (>75% of the tested compound remaining)	can be selectively delivered to the upper intestine	
CCCC(=O)Oc1cc(OC(=O)CCC)c2c(=O)c(OC(=O)CCC)c(-c3ccc(OC(=O)CCC)c(OC(=O)CCC)c3)oc2c1 [Compound 5, [2-butanoyloxy-4-[3,5,7-tri(butanoyloxy)-4-oxo-chromen-2-yl]phenyl] butanoate]	B (25-75% of the tested compound remaining)	C (>75% of the tested compound remaining)	can be selectively delivered to the upper intestine	
CC(=O)Oc1ccc(C2CC(=O)c3c(OC(C)=O)cc(OC(C)=O)cc3O2)cc1 (stereo not shown) [Compound 9, [4-(5,7-diacetoxy-4-oxo-chroman-2-yl)phenyl] acetate]	A (<25% of the tested compound remaining)	C (>75% of the tested compound remaining)	can be selectively delivered to the upper intestine	
CCCC(=O)O [Butyric Acid]				viability at 6 days, 3 mM [3]: < 90%
CC[C@H]1[C@@H](O)[C@@H]2[C@H](CC[C@]3(C)[C@@H]([C@H](C)CCC(=O)O)CC[C@@H]23)[C@@]2(C)CC[C@@H](O)C[C@@H]12 [Obeticholic acid]				viability at 6 days, 100 µM [3]: 90 to 110%
CN(CCOc1ccc(CC2SC(=O)NC2=O)cc1)c1ccccn1 (stereo not shown) [Rosiglitazone]				viability at 6 days, 10 µM ([3]; 10 uM): 90 to 110%; viability at 6 days, 100 µM [3]: < 90%
CCC(=O)OCC[C@@H](C)OC(=O)Oc1ccc(/C=C/c2cc(OC(=O)O[C@H](C)CCOC(=O)CC)cc(OC(=O)O[C@H](C)CCOC(=O)CC)c2)cc1 [Compound 27, [(3R)-3-[4-[(E)-2-[3,5-bis[[(1R)-1-methyl-3-propanoyloxy-propoxy]carbonyloxy]phenyl]vinyl]phenoxy]carbonyloxybutyl] propanoate]	A (<25% of the tested compound remaining)	C (>75% of the tested compound remaining)	can be selectively delivered to the upper intestine	
CC(=O)OCC[C@@H](C)OC(=O)Oc1ccc(/C=C/c2cc(OC(=O)O[C@H](C)CCOC(C)=O)cc(OC(=O)O[C@H](C)CCOC(C)=O)c2)cc1 [Compound 33, [(3R)-3-[4-[(E)-2-[3,5-bis[[(1R)-3-acetoxy-1-methyl-propoxy]carbonyloxy]phenyl]vinyl]phenoxy]carbonyloxybutyl] acetate]	A (<25% of the tested compound remaining)	C (>75% of the tested compound remaining)	can be selectively delivered to the upper intestine	
CCCC(=O)O[C@H](C)CCOC(=O)Oc1ccc(/C=C/c2cc(OC(=O)OCC[C@@H](C)OC(=O)CCC)cc(OC(=O)OCC[C@@H](C)OC(=O)CCC)c2)cc1 [Compound 26, [(1R)-3-[4-[(E)-2-[3,5-bis[[(3R)-3-butanoyloxybutoxy]carbonyloxy]phenyl]vinyl]phenoxy]carbonyloxy-1-methyl-propyl] butanoate]	B (25-75% of the tested compound remaining)	C (>75% of the tested compound remaining)		
CCC(=O)Oc1cc(OC(=O)CC)c2c(=O)c(OC(=O)CC)c(-c3cc(OC(=O)CC)c(OC(=O)CC)c(OC(=O)CC)c3)oc2c1 [Compound 13, [4-oxo-3,5-di(propanoyloxy)-2-[3,4,5-tri(propanoyloxy)phenyl]chromen-7-yl] propanoate]	A (<25% of the tested compound remaining)	C (>75% of the tested compound remaining)	can be selectively delivered to the upper intestine	
CC(=O)O[C@H](C)CCOC(=O)Oc1ccc(/C=C/c2cc(OC(=O)OCC[C@@H](C)OC(C)=O)cc(OC(=O)OCC[C@@H](C)OC(C)=O)c2)cc1 [Compound 34, [(1R)-3-[4-[(E)-2-[3,5-bis[[(3R)-3-acetoxybutoxy]carbonyloxy]phenyl]vinyl]phenoxy]carbonyloxy-1-methyl-propyl] acetate]	A (<25% of the tested compound remaining)	C (>75% of the tested compound remaining)	can be selectively delivered to the upper intestine	
O=c1c(O)c(-c2ccc(O)c(O)c2)oc2cc(O)cc(O)c12 [Quercetin]				viability at 6 days, 0.1 µM ([3]; 100 nM): 90 to 110%; viability at 6 days, 1 µM ([3]; 1 uM): 90 to 110%
CC(=O)O [Acetic acid]				viability at 6 days, 1 mM ([3]; 1 mM): 90 to 110%; viability at 6 days, 3 mM [3]: 90 to 110%
CCC(=O)Oc1ccc2c(c1)oc(=O)c1cc(OC(=O)CC)c(OC(=O)CC)cc12 [Compound 18, [6-oxo-8,9-di(propanoyloxy)benzo[c]chromen-3-yl] propanoate]	A (<25% of the tested compound remaining)	C (>75% of the tested compound remaining)	can be selectively delivered to the upper intestine	
CCC(=O)Oc1cc(O)c2c(=O)cc(-c3ccc(OC(=O)CC)c(OC(=O)CC)c3)oc2c1 [Compound 12, 4-(5-hydroxy-4-oxo-7-(propionyloxy)-4H-chromen-2-yl)-1,2-phenylene dipropionate]	A (<25% of the tested compound remaining)	C (>75% of the tested compound remaining)	can be selectively delivered to the upper intestine	
C[C@@H](O)CCO [(R)-1,3-Butanediol]				viability at 6 days, 100 µM [3]: 90 to 110%; viability at 6 days, 0.5 mM ([3]; 0.5 mM): 90 to 110%
CCCC(=O)Oc1ccc(C2CC(=O)c3c(OC(=O)CCC)cc(OC(=O)CCC)cc3O2)cc1 (stereo not shown) [Compound 10, [4-[5,7-di(butanoyloxy)-4-oxo-chroman-2-yl]phenyl] butanoate]	A (<25% of the tested compound remaining)	B (25-75% of the tested compound remaining)		
